In PubChem BioAssay AID588343 (Broad Institute, 2011):
Values joined by “and” are separate entries in the source; they are usually repeats but may differ in a detail not shown here. Identical values can stand only once. Results filed as inconclusive are left out.

Tested on: HEK293 LMP1 TES2 NF-kB luciferase reporter, 16 h
Experiment: inhibitors of LMP1-driven NF-kB reporter, dose response, cell-based, HEK293, luciferase, cherry-pick (AID 588343);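 also: potency of compounds lowering the induced NF-kB luciferase signal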

Structure (SMILES)	AC50
COc1ccc(O)c2c(=O)c3c(OC)cc4c(c3oc12)C1C=COC1O4 (stereo unspecified)	698 nM
CCN1CCN(Cc2ccc(NC(=O)c3ccc(C)c(NC(=O)c4cccc5[nH]ccc45)c3)cc2C(F)(F)F)CC1	418 nM and 146 nM
Nc1ccn([C@@H]2O[C@H](CO)[C@@H](O)C2O)c(=O)n1 (stereo partly specified)	4970 nM
CCN1CCN(Cc2ccc(NC(=O)c3ccc(C)c(NC(=O)N4CCNC4=O)c3)cc2C(F)(F)F)CC1	484 nM and 1060 nM and 977 nM
Cc1ccc(C(=O)Nc2cccc(C(F)(F)F)c2)cc1NC(=O)c1ccno1	816 nM and 5400 nM
Nc1ccn([C@@H]2O[C@H](CO)[C@@H](O)[C@@H]2O)c(=O)n1	13200 nM
